# From US11485732B2, “Compounds and uses thereof” (Foghorn Therapeutics Inc., priority 2020, dated 2022)
# Key:
# [1] = test system: PKC inhibitor (PKCi)-resistant MP41 uveal melanoma cells; assay: 7-day growth inhibition assay, PKC inhibitor-resistant cells (Example 14)
# [2] = test system: 92-1 uveal melanoma cells; assay: Uveal melanoma tumor growth inhibition in vivo (Example 18); parameters: species or system Nude mice; conditions: once daily oral gavage, increasing doses, 3 weeks
# [3] = Body weight change of tumor-bearing mice (Example 18); assay type: in vivo; conditions: all treatments, once daily oral gavage, 3 weeks
# [4] = test system: Uveal melanoma cell lines (92-1, MEL202, MP41, MP38, MP46), prostate cancer cells (22RV1), acute leukemia cells (EOL1, THP1), and histocytic lymphoma cells …; assay: 3-day growth inhibition, Cell-titer glow, all cell lines (Example 17); assay type: cell-based; conditions: 0 to 2 μM (uveal melanoma) or 0 to 1 μM (other cell lines), 3 days
# [5] = target: BRM (Homo sapiens, UniProt P51531); assay: biochemical
# Chain of BRM (P51531 whole entry): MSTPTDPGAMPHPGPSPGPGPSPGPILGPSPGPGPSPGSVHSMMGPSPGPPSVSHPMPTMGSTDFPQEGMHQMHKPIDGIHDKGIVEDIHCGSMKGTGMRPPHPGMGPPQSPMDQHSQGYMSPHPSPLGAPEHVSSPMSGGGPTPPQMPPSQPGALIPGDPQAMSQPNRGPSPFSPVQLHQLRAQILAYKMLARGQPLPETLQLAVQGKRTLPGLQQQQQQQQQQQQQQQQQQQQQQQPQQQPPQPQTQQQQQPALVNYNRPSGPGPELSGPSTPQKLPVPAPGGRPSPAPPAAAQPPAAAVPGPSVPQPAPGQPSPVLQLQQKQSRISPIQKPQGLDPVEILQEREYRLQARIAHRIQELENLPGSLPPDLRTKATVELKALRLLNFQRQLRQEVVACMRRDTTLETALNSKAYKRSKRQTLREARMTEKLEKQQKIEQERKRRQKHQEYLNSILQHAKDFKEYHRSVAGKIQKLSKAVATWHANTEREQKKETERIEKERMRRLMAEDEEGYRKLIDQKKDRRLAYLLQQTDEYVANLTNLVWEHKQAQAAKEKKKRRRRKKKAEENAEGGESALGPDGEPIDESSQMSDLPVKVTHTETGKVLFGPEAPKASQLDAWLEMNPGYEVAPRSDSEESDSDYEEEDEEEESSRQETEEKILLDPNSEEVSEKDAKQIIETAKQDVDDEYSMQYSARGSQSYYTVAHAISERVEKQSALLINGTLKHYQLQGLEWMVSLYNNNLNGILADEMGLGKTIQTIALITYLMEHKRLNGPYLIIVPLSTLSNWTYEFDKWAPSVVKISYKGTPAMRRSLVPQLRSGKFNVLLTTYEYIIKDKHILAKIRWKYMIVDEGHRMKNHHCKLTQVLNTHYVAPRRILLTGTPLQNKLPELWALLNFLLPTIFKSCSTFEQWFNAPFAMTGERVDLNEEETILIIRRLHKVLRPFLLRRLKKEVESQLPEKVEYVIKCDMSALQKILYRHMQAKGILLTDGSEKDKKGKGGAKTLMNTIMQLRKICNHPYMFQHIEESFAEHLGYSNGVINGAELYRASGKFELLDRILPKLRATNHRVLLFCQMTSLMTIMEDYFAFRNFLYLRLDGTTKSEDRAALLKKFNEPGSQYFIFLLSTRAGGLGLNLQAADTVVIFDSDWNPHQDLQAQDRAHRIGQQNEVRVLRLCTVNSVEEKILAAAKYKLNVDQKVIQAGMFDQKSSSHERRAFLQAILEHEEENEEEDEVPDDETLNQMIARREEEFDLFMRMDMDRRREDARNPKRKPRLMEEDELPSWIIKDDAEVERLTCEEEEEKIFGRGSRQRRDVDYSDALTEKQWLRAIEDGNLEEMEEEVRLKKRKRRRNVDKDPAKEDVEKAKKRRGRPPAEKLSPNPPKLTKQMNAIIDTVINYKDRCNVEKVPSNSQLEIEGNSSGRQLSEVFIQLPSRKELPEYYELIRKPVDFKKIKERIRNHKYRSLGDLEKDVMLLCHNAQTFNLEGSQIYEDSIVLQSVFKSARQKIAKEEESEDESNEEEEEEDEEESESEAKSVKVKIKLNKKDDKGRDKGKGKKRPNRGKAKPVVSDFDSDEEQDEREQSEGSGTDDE
# [6] = test system: uveal melanoma and hematologic cancer cell lines versus the other tested cell lines; assay: Growth of uveal melanoma, hematological and other cancer cell lines, day 3 and day 7, Cell-titer glo (Example 7); assay type: cell-based
# [7] = Body weight change of tumor-bearing mice (Example 16); assay type: in vivo; conditions: all treatments, once daily oral gavage, 3 weeks
# [8] = test system: parental MP41 cells; assay: 7-day growth inhibition assay, parental cells (Example 14)
# [9] = test system: uveal melanoma, hematologic cancer, prostate cancer, breast cancer, and Ewing's sarcoma cell lines versus the other tested cell lines; conditions: 0 to 10 μM; day 3 and day 7
# [10] = test system: Uveal melanoma cell lines (92-1, MP41, MP38, MP46) and non-small cell lung cancer cells (NCIH1299); assay: 3-day growth inhibition, Cell-titer glow (Example 12); assay type: cell-based; conditions: 0 to 10 μM, 3 days
smiles,measurement,setting,value
CC1(N)CCN(c2cccnc2NC(=O)c2nc(-c3ncccc3C(F)(F)F)cnc2N)CC1 [LXS196],"sensitivity of PKCi-resistant cells relative to parental MP41 cells (FIG. 9, FIG. 10)",[1],could tolerate growth at higher concentrations of LXS196 than could the parental MP41 cell line
"COC[C@H](NC(=O)c1ccn(S(C)(=O)=O)c1)C(=O)Nc1nc(-c2cccc(N3C[C@@H](C)O[C@@H](C)C3)n2)cs1 [N—((S)-1-((4-(6-(cis-2,6-dimethylmorpholino)pyridin-2-yl)thiazol-2-yl)amino)-3-methoxy-1-oxopropan-2-yl)-1-(methylsulfonyl)-1H-pyrrole-3-carboxamide]",tumor growth inhibition (FIG. 15),[2],tumor growth inhibition in a dose-dependent manner
same,tolerability based on % body weight change (FIG. 16),[3],well tolerated
same,growth inhibition (FIG. 14),[4],potent growth inhibition in all the cell lines
same,IC50,[5],3.9 nM
CSCC[C@H](NC(=O)c1ccc(N)cc1)C(=O)Nc1nc(-c2cccc(-c3ccncc3)c2)cs1 [Compound A],"sensitivity of cell lines to growth inhibition (GI50, FIG. 1)","[6]; 0 to 10 μM, day 3 and day 7",more sensitive to BRG1/BRM inhibition than the other tested cell lines
same,duration of growth inhibition,[6]; uveal melanoma and hematologic cancer cell lines,maintained through day 7
C[C@@H]1CN(c2cccc(-c3csc(NC(=O)CNC(=O)c4ccn(C(C)(C)C)c4)n3)n2)C[C@H](C)O1 [Compound C],"tolerability, body weight change (FIG. 13)",[7],well tolerated with no body weight loss observed
"[2H]C([2H])([2H])OC([2H])([2H])[C@H](NC(=O)c1ccn(S(C)(=O)=O)c1)C(=O)Nc1nc(-c2cccc(N3C[C@@H](C)O[C@@H](C)C3)n2)cs1 [N—((S)-1-((4-(6-(cis-2,6-dimethylmorpholino)pyridin-2-yl)thiazol-2-yl)amino)-3-(methoxy-d3)-1-oxopropan-2-yl-3,3-d2)-1-(methylsulfonyl)-1H-pyrrole-3-carboxamide]",IC50,[5],4.6 nM
"[2H]C([2H])([2H])OC([2H])([2H])[C@@H](NC(=O)c1ccn(S(C)(=O)=O)c1)C(=O)Nc1nc(-c2cccc(N3C[C@@H](C)O[C@@H](C)C3)n2)cs1 [N—((R)-1-((4-(6-(cis-2,6-dimethylmorpholino)pyridin-2-yl)thiazol-2-yl)amino)-3-(methoxy-d3)-1-oxopropan-2-yl-3,3-d2)-1-(methylsulfonyl)-1H-pyrrole-3-carboxamide]",IC50,[5],443 nM
CSCC[C@H](NC(=O)c1ccn(S(C)(=O)=O)c1)C(=O)Nc1nc(-c2cccc(-c3ccncc3)c2)cs1 [Compound B],"growth inhibition, parental MP41 cell line (FIG. 10)",[8],strong growth inhibition
same,sensitivity of cell lines to growth inhibition (FIG. 4),[9],more sensitive to BRG1/BRM inhibition than the other tested cell lines
same,growth inhibition (FIG. 6),[10],potent growth inhibition in the cell lines
